From US20240415869A1, “COMPOSITIONS, SYSTEMS, AND METHODS FOR TREATING CANCER USING TUMOR TREATING FIELDS (TTFIELDS) AND THIOREDOXIN/GLUTATHIONE INHIBITORS” (Novocure GmbH G, priority 2023, published 2024)

Key:
[1] = target: T1, glutathione reductase (Homo sapiens, UniProt P00390); details: irreversible inhibitor; cited from earlier work
T1 sequence (P00390 44-522): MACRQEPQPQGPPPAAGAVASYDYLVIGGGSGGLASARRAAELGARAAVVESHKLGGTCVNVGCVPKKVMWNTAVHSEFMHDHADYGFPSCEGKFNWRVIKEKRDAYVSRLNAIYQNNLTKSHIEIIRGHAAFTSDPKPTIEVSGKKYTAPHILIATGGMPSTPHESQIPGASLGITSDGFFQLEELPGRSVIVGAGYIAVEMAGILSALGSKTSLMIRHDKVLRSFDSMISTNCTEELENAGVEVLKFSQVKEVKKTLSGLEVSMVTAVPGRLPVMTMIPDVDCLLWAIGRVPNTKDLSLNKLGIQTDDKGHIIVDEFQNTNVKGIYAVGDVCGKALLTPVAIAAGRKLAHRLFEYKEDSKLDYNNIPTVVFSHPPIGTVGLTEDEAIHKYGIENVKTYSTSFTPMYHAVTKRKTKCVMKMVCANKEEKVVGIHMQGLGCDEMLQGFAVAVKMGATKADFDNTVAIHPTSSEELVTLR

[2] = target: T2, glutathione peroxidase 4 (GPX4) (Homo sapiens, UniProt P36969); details: selective and covalent inhibitor; cited from earlier work
T2 sequence (P36969 1-197): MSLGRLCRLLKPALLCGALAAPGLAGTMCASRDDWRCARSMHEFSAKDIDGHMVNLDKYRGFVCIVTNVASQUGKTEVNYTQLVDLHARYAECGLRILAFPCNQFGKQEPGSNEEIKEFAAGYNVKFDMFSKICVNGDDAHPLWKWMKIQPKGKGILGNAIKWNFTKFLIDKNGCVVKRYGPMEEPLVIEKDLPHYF

[3] = test system: glioblastoma stem cells (GSCs); assay: Auranofin plus TTFields in glioblastoma stem cells (Example 2); type: cell-based; details: combined with TTFields
Method: In vitro—To assess the effect of this trimodal therapy, GSCs are exposed to AU (auranofin, 0.50 μM), RT (3 Gy), TTFields, TTFields+AU, TTFields+RT, and the combination of all three treatments (AU+RT+TTFields). The GSCs are assessed for the following: (i) a neurosphere formation assay; (ii) ROS Intracellular levels; (iii) MitoTracker™ assessment of mitochondrial membrane potential; and (iv) TrXR1 and GSH activity assays.
In vivo—To further investigate the effect of ROS-inducing trimodal therapy (RT+AU+TTFields) in vivo, subcutaneous injections of GSCs 1123S and 528 stably transduced with luciferase are performed. GCSs are injected (3×10^5 cells 10 μl) to the right flank of mice. Treatment is started when tumors can be visualized by BLI upon injection of D-luciferin substrate. Blood is collected to monitor potential toxicities. The tumor is exposed to snap-freezing and then processed for WB and for tissue formalin fixation for further IHC analysis of p53, MGMT, and TrxR1-associated genes.

[4] = test system: GSCs and GBM cell lines; details: lower IC50s for GSCs compared to GBM cell lines; cited from earlier work
[5] = test system: glioblastoma stem cells (GSCs); details: cited from earlier work
[6] = test system: GBM cell lines; details: cited from earlier work
[7] = test system: GBM cell lines and GSCs; details: cited from earlier work
[8] = test system: cancer cells; details: piperlongumine combined with erastin; cited from earlier work
[9] = target: T3, wild-type human TrxR1 (Homo sapiens, UniProt Q16881); details: cited from earlier work
T3 sequence (Q16881 151-649 limits assumed): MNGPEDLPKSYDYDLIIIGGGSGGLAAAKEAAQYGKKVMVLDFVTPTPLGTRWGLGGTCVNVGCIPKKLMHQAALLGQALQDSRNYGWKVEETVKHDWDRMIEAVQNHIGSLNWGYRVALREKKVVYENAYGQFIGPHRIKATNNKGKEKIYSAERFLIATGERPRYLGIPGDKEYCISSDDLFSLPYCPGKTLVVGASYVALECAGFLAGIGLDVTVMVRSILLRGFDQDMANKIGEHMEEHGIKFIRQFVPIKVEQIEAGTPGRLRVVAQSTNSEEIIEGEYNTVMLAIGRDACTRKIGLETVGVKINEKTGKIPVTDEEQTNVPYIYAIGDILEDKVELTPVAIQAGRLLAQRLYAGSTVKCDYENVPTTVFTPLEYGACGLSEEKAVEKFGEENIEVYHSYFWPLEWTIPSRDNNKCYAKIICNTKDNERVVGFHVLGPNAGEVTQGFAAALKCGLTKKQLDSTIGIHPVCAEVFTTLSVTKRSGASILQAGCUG

[10] = target: T4, cytosolic thioredoxin reductase 1 (TXNRD1) (Homo sapiens, UniProt Q16881); details: irreversible inhibitor; cited from earlier work
T4 sequence (Q16881 151-649 limits assumed): T3 sequence (Q16881 151-649 limits assumed)

[11] = test system: mitochondrial toxicity; details: cited from earlier work

## N[C@@H](CCC(=O)N[C@@H](CSc1ccc([N+](=O)[O-])cc1[N+](=O)[O-])C(=O)NCC(=O)O)C(=O)O [(2,4-Dinitrophenyl)glutathione, S-(2,4-Dinitrophenyl)glutathione]
[1]
  Ki: 30000 nM

## Cc1onc(C(=O)N2CCN(C(c3ccc(Cl)cc3)c3ccc(Cl)cc3)CC2)c1[N+](=O)[O-] [ML-210]
[2]
  EC50: 30 nM

## CC(=O)OC[C@H]1O[C@@H]([S-])[C@H](OC(C)=O)[C@@H](OC(C)=O)[C@@H]1OC(C)=O.CCP(CC)CC.[Au+] [Auranofin]
[3]
  effect of combination of Auranofin and TTFields: synergistic effect
[4]
  cell survival: decreased
[5]
  neurosphere formation ability: decreased
[6]
  clonogenic potential: decreased
[7]; GBM cell lines and GSCs, auranofin alone
  intracellular ROS: significantly increases
[7]; GSCs, auranofin with RT
  ROS, combination with radiation therapy: synergistically increases

## COc1cc(/C=C/C(=O)N2CCC=CC2=O)cc(OC)c1OC [piperlongumine]
[8]
  effect of combination over either treatment alone: synergistic effect

## O=c1c2ccccc2[se]n1CCn1[se]c2ccccc2c1=O [Ethaselen, 1,2-[bis(1,2-benzisoselenazolone-3 (2H)-ketone)]ethane]
[9]
  IC50: 500 nM

## COc1ccc([N+](=O)[O-])c(S(=O)(=O)c2ccc(Cl)cc2)n1 [TRi-1]
[10]
  IC50: 12 nM
[11]
  mitochondrial toxicity: little mitochondrial toxicity for anticancer therapy.
